Assay results published in patent US20040063734A1, “4,4-Disubstituted-3,4-dihydro-2 (1H)-quinazoliniones useful as HIV reverse transcriptase inhibitors” (priority 2002, published 2004).
Converted amounts (≈) assume the structure as drawn.

Test system: HIV-1 (RF)
Assay: HIV RNA assay: microplate based compound evaluation in HIV-1 infected MT-2 cells
Assay type: cell-based
Details: Human immunodeficiency virus 1, MT2, 72 h; HIV-1 (RF) infected MT-2 cells, 3 days culture; value used to standardize the virus inoculum; read-out: IC90 (concentration of compound required to reduce the HIV RNA level by 90%)
Procedure: DNA Plasmids and in vitro RNA Transcripts:
Plasmid pDAB 72 containing both gag and pol sequences of BH10 (bp 113-1816) cloned into PTZ 19R was prepared according to Erickson-Viitanen et al. AIDS Research and Human Retroviruses 1989, 5, 577. The plasmid was linearized with Bam HI prior to the generation of in vitro RNA transcripts using the Riboprobe Gemini system II kit (Promega) with T7 RNA polymerase. Synthesized RNA was purified by treatment with RNase free DNAse (Promega), phenol-chloroform extraction, and ethanol precipitation. RNA transcripts were dissolved in water, and stored at −70° C. The concentration of RNA was determined from the A260.
Biotinylated capture probes were purified by HPLC after synthesis on an Applied Biosystems (Foster City, Calif.) DNA synthesizer by addition of biotin to the 5′ terminal end of the oligonucleotide, using the biotin-phosphoramidite reagent of Cocuzza, Tet. Lett. 1989, 30, 6287. […]
MT-2 and MT-4 cells were maintained in RPMI 1640 supplemented with 5% fetal calf serum (FCS) for MT-2 cells or 10% FCS for MT-4 cells, 2 mM L-glutamine and 50 μg/mL gentamycin, all from Gibco. […] Infectious titers of HIV-1(RF) stocks were 1-3×10^7 PFU (plaque forming units)/mL as measured by plaque assay on MT-2 cells (see below). […]

IC90: 0.2 µg/mL (≈ 0.947 µM)
SMILES: Nc1ccn([C@H]2CC[C@@H](CO)O2)c(=O)n1 [ddC, 2′,3′-dideoxycytidine]
